Consider 1 compound from PMC10101490 (The Journal of Biological Chemistry, 2023).

This test deals with α7 nAChR (Homo sapiens, UniProt P36544). The test can be described thus: cell-based. Details: expressed in transfected cells; host or cells: Xenopus laevis oocytes injected with cRNA transcribed from α7-pSHE; species or system Human (expressed in Xenopus laevis oocytes). Conditions: Inhibition phase potency.
α7 nAChR, sequence (P36544 23-502 limits assumed): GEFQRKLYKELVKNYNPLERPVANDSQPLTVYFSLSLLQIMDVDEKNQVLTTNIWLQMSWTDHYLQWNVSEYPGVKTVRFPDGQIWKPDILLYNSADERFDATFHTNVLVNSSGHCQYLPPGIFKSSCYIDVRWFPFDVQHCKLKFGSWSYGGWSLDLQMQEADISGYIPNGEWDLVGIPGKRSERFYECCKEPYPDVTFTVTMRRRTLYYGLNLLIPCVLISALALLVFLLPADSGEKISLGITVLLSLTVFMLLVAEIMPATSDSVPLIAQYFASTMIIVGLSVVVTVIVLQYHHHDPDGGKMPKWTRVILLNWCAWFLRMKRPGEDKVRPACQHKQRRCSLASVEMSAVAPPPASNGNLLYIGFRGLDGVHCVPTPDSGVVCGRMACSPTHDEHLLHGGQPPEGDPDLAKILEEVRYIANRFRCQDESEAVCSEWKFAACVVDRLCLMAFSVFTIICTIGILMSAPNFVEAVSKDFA

For orientation: IC50 means the concentration that inhibits the measured activity by half. A high value points to weaker potency. As to `CC[C@H](C)[C@H](NC(=O)CNC(=O)[C@H](C)NC(=O)CNC(=O)[C@@H](NC(=O)[C@@H]1CCCN1C(=O)[C@@H](NC(=O)[C@H](CC(=O)O)NC(=O)[C@H](CS)NC(=O)[C@H](CCC(=O)O)NC(=O)[C@@H](N)Cc1ccc(O)cc1)[C@@H](C)CC)[C@@H](C)CC)C(=O)N[C@@H](CS)C(=O)N[C@@H](C)C(=O)N[C@@H](CO)C(=O)N[C@@H](Cc1ccc(O)cc1)C(=O)N[C@@H](CCC(N)=O)C(=O)N[C@H](C(=O)N[C@@H](CCC(N)=O)C(=O)N[C@H](C(=O)N[C@@H](CC(N)=O)C(=O)N[C@@H](CO)C(=O)N[C@@H](CCCNC(=N)N)C(=O)N[C@@H](CCCNC(=N)N)C(=O)N[C@@H](CCCNC(=N)N)C(=O)N[C@@H](C)C(=O)N[C@@H](CCCNC(=N)N)C(=O)N[C@@H](CO)C(=O)N[C@H](C(=O)N[C@@H](C)C(=O)N[C@@H](CO)C(=O)O)C(C)C)[C@@H](C)O)[C@@H](C)O` [delta SCoV2P], the concentration for half-maximal inhibition (IC50) is 100 µM.
